Measured values published in patent publication US4994270A, “A54145 antibiotics and process for their production” (Eli Lilly and Company, priority 1988, dated 1991).

System: Streptomyces fradiae A54145.1, A54145.2 and A54145.3
Assay: Resistance to antibiotics, sensitivity discs on seeded ISP No. 2 agar plates
Details: identical for A54145.1, A54145.2, A54145.3; lincomycin 2 μg, penicillin G 10 units, bacitracin 10 units, cephalothin 30 μg, gentamicin 10 μg, neomycin 30 μg, oleandomycin 15 μg, rifampin 5 μg, streptomycin 10 μg, tetracycline 30 μg, tobramycin 10 μg, vancomycin 30 μg
Protocol: Resistance to antibiotics was measured by padding antibiotic sensitivity discs onto the surface of seeded ISP No. 2 agar plates.

Compound	resistance or sensitivity of the strains to antibiotic discs
CO[C@H]1C[C@H](O[C@H]2[C@H](C)[C@@H](O[C@@H]3O[C@H](C)C[C@H](N(C)C)[C@H]3O)[C@@H](C)C[C@@]3(CO3)C(=O)[C@H](C)[C@@H](O)[C@@H](C)[C@@H](C)OC(=O)[C@@H]2C)O[C@@H](C)[C@@H]1O [oleandomycin]	sensitive
CC1(C)S[C@@H]2[C@H](NC(=O)Cc3ccccc3)C(=O)N2[C@H]1C(=O)O [penicillin G]	resistant
CO[C@H]1/C=C/O[C@@]2(C)Oc3c(C)c(O)c4c(O)c(c(/C=N/N5CCN(C)CC5)c(O)c4c3C2=O)NC(=O)/C(C)=C\C=C\[C@H](C)[C@H](O)[C@@H](C)[C@@H](O)[C@@H](C)[C@H](OC(C)=O)[C@@H]1C [rifampin]	sensitive
[H]/N=C(/N)N[C@H]1[C@H](O)[C@@H](O)[C@H](O[C@@H]2O[C@@H](C)[C@](O)(C=O)[C@H]2O[C@@H]2O[C@@H](CO)[C@H](O)[C@@H](O)[C@@H]2NC)[C@@H](N/C(N)=N\[H])[C@@H]1O [streptomycin]	sensitive
CN(C)[C@@H]1C(O)=C(C(N)=O)C(=O)[C@@]2(O)C(O)=C3C(=O)c4c(O)cccc4[C@@](C)(O)[C@H]3C[C@@H]12 [tetracycline]	sensitive
NC[C@H]1O[C@H](O[C@H]2[C@H](O)[C@@H](O[C@H]3O[C@H](CO)[C@@H](O)[C@H](N)[C@H]3O)[C@H](N)C[C@@H]2N)[C@H](N)C[C@@H]1O [tobramycin]	sensitive
CN[C@H](CC(C)C)C(=O)N[C@H]1C(=O)N[C@@H](CC(N)=O)C(=O)N[C@H]2C(=O)N[C@H]3C(=O)N[C@H](C(=O)N[C@H](C(=O)O)c4cc(O)cc(O)c4-c4cc3ccc4O)[C@H](O)c3ccc(c(Cl)c3)Oc3cc2cc(c3O[C@@H]2O[C@H](CO)[C@@H](O)[C@H](O)[C@H]2O[C@H]2C[C@](C)(N)[C@H](O)[C@H](C)O2)Oc2ccc(cc2Cl)[C@H]1O [vancomycin]	sensitive
gentamicin	sensitive
neomycin	sensitive
